Our source for the IC50 and Drug metabolism values is ChEMBL document CHEMBL4706489, “Hydrogen sulfide releasing oridonin derivatives induce apoptosis through extrinsic and intrinsic pathways” (Eur J Med Chem, 2020).

The test system of data set [1] is MCF7. As to the kind of experiment: Antiproliferative activity against human MCF7 cells assessed as reduction in cell viability after 72 hrs by MTT assay. The settings on record: MCF7, 72 h. (Formazan colour is commonly taken as a measure of viable cells.)
Data set [2] is described as follows: Cytotoxicity against human PBMC cells assessed as cell viability after 72 hrs by MTT assay.
Data set [3] has as its system HepG2. The data set is described as follows: Antiproliferative activity against human HepG2 cells assessed as reduction in cell viability after 72 hrs by MTT assay. The note with it: HepG2, 72 h.
Data set [4] has as its system B16. As to the kind of experiment: Antiproliferative activity against mouse B16 cells assessed as reduction in cell viability after 72 hrs by MTT assay. The note with it: B16, 72 h.
For data set [5], the system named is L02. The data set is described as follows: Cytotoxicity against human L02 cells assessed as cell viability after 72 hrs by MTT assay. The settings on record: L02, 72 h.
The test system of data set [6] is HCT-116. The data set is described as follows: Antiproliferative activity against human HCT-116 cells assessed as reduction in cell viability after 72 hrs by MTT assay. The settings on record: HCT-116, 72 h.
The test system of data set [7] is K562. The data set is described as follows: Antiproliferative activity against human K562 cells assessed as reduction in cell viability after 72 hrs by MTT assay. The settings on record: K562, 72 h.
Data set [8] in a line: Prodrug conversion in THF/PBS buffer assessed as H2S release concentration at 0.1 mM in presence of TCEP after 20 mins by methylene blue staining based UV-Vis spectrophotometric method. The format is ADME. The settings on record: 100 µM.

A value given as a limit tells only on which side of the number the result lay.

Regarding `C=C1C(=O)[C@]23[C@H](OC(=O)CCCC(=O)OCCCOc4ccc(-c5cc(=S)ss5)cc4)[C@H]1CC[C@H]2[C@@]12CO[C@@]3(O)[C@@H](O)[C@@H]1C(C)(C)CC[C@@H]2OC(C)=O`, the IC50 (usually the concentration that gives 50% inhibition) in data set [1] is 15.8 µM; in data set [2], greater than 50 µM; in data set [3], 3.57 µM; in data set [4], greater than 50 µM; in data set [5], 33.5 µM; in data set [6] it was 37.5 µM. Moreover, the IC50 in data set [7] was 5.93 µM.
For the compound `C=C1C(=O)[C@]23[C@H](OC(=O)CCCC(=O)OCCCOc4ccc(-c5cc(=S)ss5)cc4)[C@H]1CC[C@H]2[C@@]12CO[C@@]3(O)[C@@H](O)[C@@H]1C(C)(C)CCC2=O`, the half-maximal inhibitory concentration (IC50) is 12.5 µM in data set [1]; greater than 50 µM in data set [2]; 2.58 µM in data set [3]; 39.9 µM in data set [4]; 27.2 µM in data set [5]; 23.7 µM in data set [6]. The IC50 in data set [7] stood at 3.59 µM.
For `C=C1C(=O)[C@]23[C@H](OC(=O)CCC(=O)OCCOc4ccc(-c5cc(=S)ss5)cc4)[C@H]1CC[C@H]2[C@@]12CO[C@@]3(O)[C@@H](O)[C@@H]1C(C)(C)CC[C@@H]2OC(C)=O`, the IC50 in data set [1] is 24.7 µM; in data set [2] it was greater than 50 µM; in data set [3], 5.89 µM; in data set [4], greater than 50 µM; in data set [5], 29.9 µM; in data set [6], 36.9 µM. The IC50 in data set [7] is 2.85 µM.
For `C=C1C(=O)[C@]23[C@H](OC(=O)CCCC(=O)OCCCCCCOc4ccc(-c5cc(=S)ss5)cc4)[C@H]1CC[C@H]2[C@@]12CO[C@@]3(O)[C@@H](O)[C@@H]1C(C)(C)CC[C@@H]2OC(C)=O`, the IC50 is greater than 50 µM in data set [1]; greater than 50 µM in data set [2]; 15.6 µM in data set [3]; greater than 50 µM in data set [4]; greater than 50 µM in data set [5]; greater than 50 µM in data set [6]. In data set [7], the IC50 was 13.9 µM.
Take `C=C1C(=O)[C@]23[C@H](O)[C@H]1CC[C@H]2[C@@]12CO[C@@]3(O)[C@@H](O)[C@@H]1C(C)(C)CCC2=O`: the IC50 in data set [1] is 15.4 µM; in data set [2] it was greater than 50 µM; in data set [3] it was 10.5 µM; in data set [4], 25.5 µM; in data set [5] it was 28.5 µM; in data set [6], 10.7 µM. The IC50 in data set [7] amounted to 4.17 µM.
Consider `C=C1C(=O)[C@]23[C@H](OC(=O)CCCC(=O)OCCCCCCOc4ccc(-c5cc(=S)ss5)cc4)[C@H]1CC[C@H]2[C@@]12CO[C@@]3(O)[C@@H](O)[C@@H]1C(C)(C)CCC2=O`, for which the IC50 is greater than 50 µM in data set [1]; greater than 50 µM in data set [2]; 9.33 µM in data set [3]; greater than 50 µM in data set [4]; greater than 50 µM in data set [5]; greater than 50 µM in data set [6]. Besides, in data set [7], the IC50 was 8.89 µM.
For the compound `C=C1C(=O)[C@]23[C@H](OC(=O)CCCC(=O)OCCOc4ccc(-c5cc(=S)ss5)cc4)[C@H]1CC[C@H]2[C@@]12CO[C@@]3(O)[C@@H](O)[C@@H]1C(C)(C)CCC2=O`, the IC50 in data set [1] is 27.5 µM; in data set [2], greater than 50 µM; in data set [3] it was 7.65 µM; in data set [4], greater than 50 µM; in data set [5], 42.2 µM; in data set [6], 34.9 µM. Besides, the concentration for half-maximal inhibition (IC50) in data set [7] worked out at 5.75 µM.
`C=C1C(=O)[C@]23[C@H](OC(=O)CCC(=O)OCCCCCCOc4ccc(-c5cc(=S)ss5)cc4)[C@H]1CC[C@H]2[C@@]12CO[C@@]3(O)[C@@H](O)[C@@H]1C(C)(C)CCC2=O`: the half-inhibitory concentration (IC50) in data set [1] is 34.8 µM; in data set [2], greater than 50 µM; in data set [3], 10.5 µM; in data set [4], greater than 50 µM; in data set [5], greater than 50 µM; in data set [6], greater than 50 µM. Besides, the 50% inhibitory concentration (IC50) in data set [7] was found to be 5.87 µM.
As for `C=C1C(=O)[C@]23[C@H](OC(=O)CCCC(=O)OCCCCCCO[C@H]4CCC(C)(C)[C@H]5[C@H](O)[C@]6(O)OC[C@@]45[C@@H]4CC[C@H]5C(=C)C(=O)[C@]46[C@@H]5OC(=O)CCCC(=O)OCCCCCCOc4ccc(-c5cc(=S)ss5)cc4)[C@H]1CC[C@H]2[C@@]12CO[C@@]3(O)[C@@H](O)[C@@H]1C(C)(C)CC[C@@H]2O`, the half-maximal inhibitory concentration (IC50) in data set [1] is greater than 50 µM; in data set [2], greater than 50 µM; in data set [3], 10.1 µM; in data set [4], greater than 50 µM; in data set [5] it was greater than 50 µM; in data set [6], greater than 50 µM. Moreover, the IC50 in data set [7] came out at 13.5 µM. In data set [8], the Drug metabolism was 15 µM.
Consider `C=C1C(=O)[C@]23[C@H](OC(=O)CCC(=O)OCCCOc4ccc(-c5cc(=S)ss5)cc4)[C@H]1CC[C@H]2[C@@]12CO[C@@]3(O)[C@@H](O)[C@@H]1C(C)(C)CC[C@@H]2O`, for which the IC50 is 14.7 µM in data set [1]; greater than 50 µM in data set [2]; 4.45 µM in data set [3]; 27.5 µM in data set [4]; 26.5 µM in data set [5]; 27.5 µM in data set [6]. In addition, the 50% inhibitory concentration (IC50) in data set [7] came out at 2.17 µM. In addition, the Drug metabolism in data set [8] stood at 15 µM.
Turning to `C=C1C(=O)[C@]23[C@H](OC(=O)CCCC(=O)OCCOc4ccc(-c5cc(=S)ss5)cc4)[C@H]1CC[C@H]2[C@@]12CO[C@@]3(O)[C@@H](O)[C@@H]1C(C)(C)CC[C@@H]2OC(C)=O`, the IC50 is greater than 50 µM in data set [1]; greater than 50 µM in data set [2]; 4.78 µM in data set [3]; 11.1 µM in data set [4]; 26.8 µM in data set [5]; greater than 50 µM in data set [6]. Moreover, the IC50 in data set [7] turned out to be 1.86 µM.
For the compound `C=C1C(=O)[C@]23[C@H](O)[C@H]1CC[C@H]2[C@@]12CO[C@@]3(O)[C@@H](O)[C@@H]1C(C)(C)CC[C@@H]2OC(C)=O` [LASIOKAURIN], the IC50 in data set [1] is 19.8 µM; in data set [2] it was greater than 50 µM; in data set [3] it was 11.9 µM; in data set [4], 32.6 µM; in data set [5], 25.4 µM; in data set [6] it was 13.5 µM. The half-inhibitory concentration (IC50) in data set [7] stood at 5.21 µM.
Take `C=C1C(=O)[C@]23[C@H](OC(=O)CCC(=O)OCCCOc4ccc(-c5cc(=S)ss5)cc4)[C@H]1CC[C@H]2[C@@]12CO[C@@]3(O)[C@@H](O)[C@@H]1C(C)(C)CC[C@@H]2OC(C)=O`: the IC50 in data set [1] is 20.8 µM; in data set [2] it was greater than 50 µM; in data set [3], 6.3 µM; in data set [4] it was 16.4 µM; in data set [5], 22.3 µM; in data set [6] it was 22.1 µM. Besides, the half-maximal inhibitory concentration (IC50) in data set [7] is 2.44 µM.
Consider `C=C1C(=O)[C@]23[C@H](OC(=O)CCC(=O)OCCCOc4ccc(-c5cc(=S)ss5)cc4)[C@H]1CC[C@H]2[C@@]12CO[C@@]3(O)[C@@H](O)[C@@H]1C(C)(C)CCC2=O`, for which the IC50 in data set [1] is 19.5 µM; in data set [2], greater than 50 µM; in data set [3] it was 5.01 µM; in data set [4], greater than 50 µM; in data set [5], greater than 50 µM; in data set [6], 14 µM. Further, the half-inhibitory concentration (IC50) in data set [7] turned out to be 7.12 µM.
`C=C1C(=O)[C@]23[C@H](OC(=O)CCC(=O)OCCOc4ccc(-c5cc(=S)ss5)cc4)[C@H]1CC[C@H]2[C@@]12CO[C@@]3(O)[C@@H](O)[C@@H]1C(C)(C)CC[C@@H]2O`: the IC50 is 17.9 µM in data set [1]; greater than 50 µM in data set [2]; 5.36 µM in data set [3]; greater than 50 µM in data set [4]; 34 µM in data set [5]; 42.6 µM in data set [6]. Besides, the 50% inhibitory concentration (IC50) in data set [7] was determined as 4.57 µM. Besides, the Drug metabolism in data set [8] worked out at 15 µM.
In the case of `O=c1[nH]cc(F)c(=O)[nH]1` [FLUOROURACIL], the IC50 in data set [1] was 26.7 µM; in data set [2], greater than 50 µM; in data set [3] it was 32.6 µM; in data set [4] it was 12.6 µM; in data set [5] it was greater than 50 µM.
As for `C=C1C(=O)[C@]23[C@H](OC(=O)CCC(=O)OCCOc4ccc(-c5cc(=S)ss5)cc4)[C@H]1CC[C@H]2[C@@]12CO[C@@]3(O)[C@@H](O)[C@@H]1C(C)(C)CCC2=O`, the IC50 in data set [1] was 25.4 µM; in data set [2], greater than 50 µM; in data set [3], 7.52 µM; in data set [4], greater than 50 µM; in data set [5], 39.6 µM; in data set [6] it was greater than 50 µM. For the same compound, the IC50 in data set [7] is 8.79 µM.
On to `C=C1C(=O)[C@]23[C@H](OC(=O)CCCC(=O)OCCCOc4ccc(-c5cc(=S)ss5)cc4)[C@H]1CC[C@H]2[C@@]12CO[C@@]3(O)[C@@H](O)[C@@H]1C(C)(C)CC[C@@H]2O`, for which the 50% inhibitory concentration (IC50) in data set [1] was 16.6 µM; in data set [2], greater than 50 µM; in data set [3], 5.93 µM; in data set [4], greater than 50 µM; in data set [5] it was 40.9 µM; in data set [7] it was 4.19 µM. Further, the Drug metabolism in data set [8] stood at 15 µM.
Consider `C=C1C(=O)[C@]23[C@H](OC(=O)CCCC(=O)OCCOc4ccc(-c5cc(=S)ss5)cc4)[C@H]1CC[C@H]2[C@@]12CO[C@@]3(O)[C@@H](O)[C@@H]1C(C)(C)CC[C@@H]2O`, for which the half-maximal inhibitory concentration (IC50) in data set [1] is 18.3 µM; in data set [2], greater than 50 µM; in data set [3], 6.6 µM; in data set [4], greater than 50 µM; in data set [5], 39.1 µM; in data set [6] it was 38.4 µM. The IC50 in data set [7] was found to be 4.89 µM.
In the case of `Oc1ccc(-c2cc(=S)ss2)cc1`, the IC50 in data set [1], in data set [2], in data set [3], in data set [4], in data set [5] and in data set [6] was greater than 50 µM in each case. In addition, the concentration for half-maximal inhibition (IC50) in data set [7] was greater than 50 µM.
